Measurements as given in patent publication WO2023227069A1, “Polidocanol with single molecular weight, and use thereof” (Jenkem Technology Co Ltd, priority 2022, dated 2023).
Read-outs that look alike come from different tables or passages of the source.

Assays:
[1] = test system: HUVEC (human umbilical vein endothelial cells); assay: Cytotoxicity on HUVEC (CCK8), IC50 of polidocanols with different chain lengths; type: cell-based; settings: in words, values of Table 8 not in this copy
[2] = Foaming efficiency of 1% solutions (foam drainage, half-life, coalescence); type: physicochemical; settings: 1% solution, 20 pumps
rabbit ear marginal vein = assay: Venous sclerosis after single injection of foam preparation into rabbit marginal ear vein (effective rate, appearance); type: in vivo, New Zealand rabbit; settings: for Effective rate of venous sclerosis compared with positive control low-dose group: in words
[3] = test system: marginal ear vein of rabbits; assay: Venous pathological sections 14 days after injection into rabbit marginal ear vein; type: in vivo, New Zealand rabbit; settings: for Pathological score of rabbit ear blood vessels compared with positive low-dose control group: in words
[4] = 14 days after intravenous injection into rabbit ear margin

Compound	IC50 value compared with polidocanol group [1]	Effective rate of venous sclerosis (rabbit ear marginal vein; [4])	Effective rate of venous sclerosis compared with positive control low-dose group (rabbit ear marginal vein; 14 days)	Effective rate of venous sclerosis compared with positive control low-dose group (rabbit ear marginal vein; 21 days)	Pathological changes in blood vessels, high magnification [3]	Pathological changes in blood vessels, low magnification [3]	Pathological score of rabbit ear blood vessels compared with positive low-dose control group [3]	other results
CCCCCCCCCCCCOCCOCCOCCOCCO [DD-PEG4-OH]	greater than that of the polidocanol group							Foam half-life time (FHT), in words ([2]; even if a small amount of foam is formed): disappear in a very short time; Foam formation ([2]; in words, listed as P4): it is difficult for the P4 sample to form foam
CCCCCCCCCCCCOCCOCCOCCOCCOCCOCCOCCOCCO [DD-PEG8-OH]	smaller than those of the polidocanol group	above 83.33%	not lower than the positive control low-dose group	higher than the positive control low-dose group	a large number of fibroblast proliferations can be seen in the lumen, and red blood cells are scattered among local fibroblasts; new capillaries and macrophages that phagocytose hemosiderin can be seen locally	The tissue structure of each layer of the wall is unclear and the blood vessel lumen is occluded	higher than those of the positive low-dose control group	Appearance of veins (rabbit ear marginal vein; 14 days after administration): some Blood vessels are blocked; Appearance of veins (rabbit ear marginal vein; 21 days after administration): some blood vessels in the rabbit ear Completely blocked
CCCCCCCCCCCCOCCOCCOCCOCCOCCOCCOCCOCCOCCO [DD-PEG9-OH]	smaller than those of the polidocanol group							Appearance of veins (rabbit ear marginal vein; 14 days after administration, low-dose group): some Blood vessels are blocked; Effective rate of venous sclerosis (rabbit ear marginal vein; 14 days, P9 high-dose group): above 83.33%; Effective rate of venous sclerosis compared with positive control low-dose group (rabbit ear marginal vein; 14 days, P9 high-dose group): not lower than the positive control low-dose group; Effective rate of venous sclerosis (rabbit ear marginal vein; 14 days, P9 low-dose group): above 83.33%; Effective rate of venous sclerosis compared with positive control low-dose group (rabbit ear marginal vein; 14 days, P9 low-dose group): not lower than the positive control low-dose group; Appearance of veins (rabbit ear marginal vein; 21 days after administration, low-dose group): some blood vessels in the rabbit ear Completely blocked; Effective rate of venous sclerosis compared with positive control low-dose group (rabbit ear marginal vein; 21 days, P9 high-dose group): higher than the positive control low-dose group; Effective rate of venous sclerosis compared with positive control low-dose group (rabbit ear marginal vein; 21 days, P9 low-dose group): higher than the positive control low-dose group; Pathological score of rabbit ear blood vessels compared with positive low-dose control group ([3]; P9 high-dose group): higher than those of the positive low-dose control group; Pathological score of rabbit ear blood vessels compared with positive low-dose control group ([3]; P9 low-dose group): higher than those of the positive low-dose control group; Pathological changes in blood vessels, high magnification ([3]; high-dose group): a large number of fibroblast proliferations can be seen in the lumen, and red blood cells are scattered among local fibroblasts; new capillaries and macrophages that phagocytose hemosiderin can be seen locally; Pathological changes in blood vessels, low magnification ([3]; high-dose group): The tissue structure of each layer of the wall is unclear and the blood vessel lumen is occluded; Pathological changes in blood vessels, high magnification ([3]; low-dose group): a large number of fibroblast proliferations can be seen in the lumen, and red blood cells are scattered among local fibroblasts; new capillaries and macrophages that phagocytose hemosiderin can be seen locally; Pathological changes in blood vessels, low magnification ([3]; low-dose group): The tissue structure of each layer of the wall is unclear and the blood vessel lumen is occluded
CCCCCCCCCCCCOCCOCCOCCOCCOCCOCCOCCOCCOCCOCCO [DD-PEG10-OH]	smaller than those of the polidocanol group	above 83.33%	not lower than the positive control low-dose group	higher than the positive control low-dose group	a large number of fibroblast proliferations can be seen in the lumen, and red blood cells are scattered among local fibroblasts; new capillaries and macrophages that phagocytose hemosiderin can be seen locally	The tissue structure of each layer of the wall is unclear and the blood vessel lumen is occluded	higher than those of the positive low-dose control group	Foam drainage time (FDT), precipitation time of liquid, in words ([2]; relative to other samples): relatively slow
CCCCCCCCCCCCOCCOCCOCCOCCOCCOCCOCCOCCOCCOCCOCCO [DD-PEG11-OH]	smaller than those of the polidocanol group	above 83.33%	not lower than the positive control low-dose group	higher than the positive control low-dose group	a large number of fibroblast proliferations can be seen in the lumen, and red blood cells are scattered among local fibroblasts; new capillaries and macrophages that phagocytose hemosiderin can be seen locally	The tissue structure of each layer of the wall is unclear and the blood vessel lumen is occluded	higher than those of the positive low-dose control group	
CCCCCCCCCCCCOCCOCCOCCOCCOCCOCCOCCOCCOCCOCCOCCOCCO [DD-PEG12-OH]	smaller than those of the polidocanol group							
CCCCCCCCCCCCOCCOCCOCCOCCOCCOCCOCCOCCOCCOCCOCCOCCOCCOCCOCCOCCOCCOCCOCCOCCOCCOCCOCCOCCO [DD-PEG24-OH]	greater than that of the polidocanol group							Foam coalescence time (FCT), time for foam to completely disappear [2]: about 4.25 min
